Results on 26 compounds are retold here after US7700602B2, “Amino-5,5-diphenylimidazolone derivatives for the inhibition of β-secretase” (Wyeth LLC, priority 2004, dated 2010).

The term IC50 denotes the concentration needed to halve the response being measured.

One assay addresses T1, human BACE2 (Homo sapiens, UniProt Q9Y5Z0).
T1 sequence (Q9Y5Z0 63-518): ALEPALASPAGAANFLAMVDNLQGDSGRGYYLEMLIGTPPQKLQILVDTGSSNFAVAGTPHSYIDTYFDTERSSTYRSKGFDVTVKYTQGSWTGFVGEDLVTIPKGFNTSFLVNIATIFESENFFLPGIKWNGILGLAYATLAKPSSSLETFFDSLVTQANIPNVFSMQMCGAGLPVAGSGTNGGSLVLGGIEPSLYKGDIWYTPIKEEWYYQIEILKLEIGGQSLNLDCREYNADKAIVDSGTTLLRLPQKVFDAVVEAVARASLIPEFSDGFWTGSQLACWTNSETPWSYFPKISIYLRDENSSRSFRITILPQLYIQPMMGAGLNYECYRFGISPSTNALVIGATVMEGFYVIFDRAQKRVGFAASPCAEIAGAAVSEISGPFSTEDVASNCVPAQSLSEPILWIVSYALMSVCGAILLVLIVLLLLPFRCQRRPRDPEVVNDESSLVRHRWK
Briefly: Fluorescent Kinetic Assay for Human Recombinant BACE 2 (selectivity BACE1/BACE2).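 Further: cleavage rate from the linear slope of fluorescence (excitation 320 nm, emission 420 nm) recorded every 40 s over 30 min at room temperature, sodium acetate buffer with 0.05% CHAPS.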 It is filed as biochemical. The settings on record: selectivity BACE1 over BACE2; 1.5 nM human BACE2, 25 μM substrate, pH 4.5.

For the next assay, the target named is human BACE1 (Homo sapiens, UniProt P56817). Briefly: Fluorescent kinetic assay, inhibition of BACE1 (WABC-6 peptide substrate).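 Further: fluorescence monitored at 320 nm excitation and 420 nm emission every 40 s over 30 min, with the substrate cleavage rate taken from the linear slope.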 It is filed as biochemical. As to conditions: 10 nM enzyme, 25 μM substrate WABC-6, pH 4.5, room temperature; read-out: IC50 (μM) BACE1.

Each structure is given as a SMILES string. Bounds are passed on as bounds.

Chain of human BACE1 (P56817 46-501): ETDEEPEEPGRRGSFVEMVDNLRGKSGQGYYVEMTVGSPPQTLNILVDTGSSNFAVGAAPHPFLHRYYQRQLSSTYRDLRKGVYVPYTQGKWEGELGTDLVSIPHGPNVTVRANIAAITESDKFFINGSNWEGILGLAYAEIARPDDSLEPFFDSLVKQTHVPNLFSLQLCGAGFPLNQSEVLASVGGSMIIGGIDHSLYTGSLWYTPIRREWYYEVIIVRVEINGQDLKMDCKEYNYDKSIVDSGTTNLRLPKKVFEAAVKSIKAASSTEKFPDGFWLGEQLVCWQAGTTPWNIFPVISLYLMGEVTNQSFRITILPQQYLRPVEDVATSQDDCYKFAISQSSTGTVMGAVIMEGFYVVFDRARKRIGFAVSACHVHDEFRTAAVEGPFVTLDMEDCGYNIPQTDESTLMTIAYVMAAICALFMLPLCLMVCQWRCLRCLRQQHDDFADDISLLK

For `CN1C(=O)C(c2ccc(OC(F)F)cc2)(c2cccc(-c3ccc(F)nc3)c2)N=C1N` (stereo not shown) [Example 90], the BACE1/BACE2 selectivity entry at human BACE2 is listed as “II (II = 10-100-fold selectivity)”. Also, the IC50 at human BACE1 was in the range of 0.01 to 0.1 µM.
In the same order, the values of `CN1C(=O)C(c2ccc(OC(F)F)cc2)(c2cccc(-c3cc(F)cnc3F)c2)N=C1N` (stereo not shown) [Example 91] are “II (II = 10-100-fold selectivity)” and 0.01 to 0.1 µM.
Take `CN1C(=O)C(c2ccc(OC(F)F)cc2)(c2ccc(F)c(-c3cc(F)cnc3F)c2)N=C1N` (stereo not shown) [Example 92]: the BACE1/BACE2 selectivity result at human BACE2 is given as “II (II = 10-100-fold selectivity)”. Besides, the IC50 on human BACE1 lay within 0.01 to 0.1 µM.
Regarding `CN1C(=O)C(c2ccc(OC(F)(F)F)cc2)(c2ccc(F)c(-c3cnn(C)c3)c2)N=C1N` (stereo not shown) [Example 100, 2-Amino-5-[4-fluoro-3-(1-methyl-1H-pyrazol-4-yl)phenyl]3-methyl-5-[4-(trifluoromethoxy)phenyl]-3,5-dihydro-4H-imidazol-4-one], the BACE1/BACE2 selectivity result at human BACE2 is listed as “III (III = <10-fold selectivity)”. Also, the IC50 on human BACE1 is 0.11 to 1 µM.
With `CCOc1ccc([C@@]2(c3cccc(-c4cccnc4F)c3)N=C(N)N(C)C2=O)cc1OCC` [Example 103A, (5R)-2-Amino-5-(3,4-diethoxyphenyl)-5-[3-(2-fluoropyridin-3-yl)phenyl]-3-methyl-3,5-dihydro-4H-imidazol-4-one], the BACE1/BACE2 selectivity entry at human BACE2 is “III (III = <10-fold selectivity)”. The IC50 on human BACE1 is over 1 µM.
As to `CCOc1ccc([C@]2(c3cccc(-c4cccnc4F)c3)N=C(N)N(C)C2=O)cc1OCC` [Example 103B, (5S)-2-Amino-5-(3,4-diethoxyphenyl)-5-[3-(2-fluoropyridin-3-yl)phenyl]-3-methyl-3,5-dihydro-4H-imidazol-4-one], the BACE1/BACE2 selectivity result at human BACE2 is listed as “II (II = 10-100-fold selectivity)”. On human BACE1, the IC50 was 0.01 to 0.1 µM.
In the same order, the values of `COc1ccc([C@]2(c3ccc(F)c(-c4cncnc4)c3)N=C(N)N(C)C2=O)cc1C(F)(F)F` [Example 107A, (5S)-2-Amino-5-(4-fluoro-3-pyrimidin-5-ylphenyl)-5-[4-methoxy-3-(trifluoromethyl)phenyl]-3-methyl-3,5-dihydro-4H-imidazol-4-one] are “I (I = >100-fold selectivity)” and 0.01 to 0.1 µM.
Regarding `COc1ccc([C@@]2(c3ccc(F)c(-c4cncnc4)c3)N=C(N)N(C)C2=O)cc1C(F)(F)F` [Example 107B, (5R)-2-Amino-5-(4-fluoro-3-pyrimidin-5-ylphenyl)-5-[4-methoxy-3-(trifluoromethyl)phenyl]-3-methyl-3,5-dihydro-4H-imidazol-4-one], the BACE1/BACE2 selectivity result on human BACE2 is “III (III = <10-fold selectivity)”. For the same compound, the IC50 at human BACE1 is over 1 µM.
With `CN1C(=O)C(c2ccc(OCCF)cc2)(c2cccc(-c3cncc(F)c3)c2)N=C1N` (stereo not shown) [Example 110], the BACE1/BACE2 selectivity entry at human BACE2 is reported as “II (II = 10-100-fold selectivity)”. The IC50 at human BACE1 was in the range of 0.01 to 0.1 µM.
`Cc1cc(C2(c3cccc(-c4cncnc4)c3)N=C(N)N(C)C2=O)ccc1OCCC1CCCCC1` (stereo not shown) [Example 123]: the BACE1/BACE2 selectivity entry on human BACE2 is recorded as “II (II = 10-100-fold selectivity)”. In addition, the IC50 on human BACE1 lay in the range of 0.11 to 1 µM.
Taken in the same sequence, the figures for `NC1=NC(c2ccc(OC(F)(F)F)cc2)(c2ccc(F)c(-c3cncnc3)c2)C(=O)N1CCF` (stereo not shown) [Example 126] were “I (I = >100-fold selectivity)” and 0.11 to 1 µM.
For `NC1=NC(c2ccc(OC(F)(F)F)cc2)(c2ccc(F)c(-c3cccnc3F)c2)C(=O)N1CCF` (stereo not shown) [Example 127], on human BACE2, the BACE1/BACE2 selectivity entry was “I (I = >100-fold selectivity)”. For the same compound, the IC50 on human BACE1 fell in the range of 0.11 to 1 µM.
Turning to `CCN1C(=O)C(c2ccc(OC(F)F)cc2)(c2ccc(F)c(-c3cncc(F)c3)c2)N=C1N` (stereo not shown) [Example 128], the BACE1/BACE2 selectivity result on human BACE2 is “II (II = 10-100-fold selectivity)”. Moreover, the IC50 on human BACE1 lay in the range of 0.11 to 1 µM.
For the compound `CN1C(=O)[C@](c2ccc(OC(F)F)cc2)(c2ccc(F)c(-c3cccnc3F)c2)N=C1N` [Example 133A, (5S)-2-Amino-5-[4-(difluoromethoxy)phenyl]-5-[4-fluoro-3-(2-fluoropyridin-3-yl)phenyl]-3-methyl-3,5-dihydro-4H-imidazol-4-one], the BACE1/BACE2 selectivity result at human BACE2 was “III (III = <10-fold selectivity)”. At human BACE1, the concentration for half-maximal inhibition (IC50) is 0.11 to 1 µM.
`CN1C(=O)[C@@](c2ccc(OC(F)F)cc2)(c2ccc(F)c(-c3cccnc3F)c2)N=C1N` [Example 133B, (5R)-2-Amino-5-[4-(difluoromethoxy)phenyl]-5-[4-fluoro-3-(2-fluoropyridin-3-yl)phenyl]-3-methyl-3,5-dihydro-4H-imidazol-4-one]: the BACE1/BACE2 selectivity result at human BACE2 is “II (II = 10-100-fold selectivity)”. Besides, the half-maximal inhibitory concentration (IC50) at human BACE1 is 0.01 to 0.1 µM.
As for `CN1C(=O)[C@](c2ccc(OC(F)F)cc2)(c2ccc(F)c(-c3ccc(F)nc3)c2)N=C1N` [Example 134A, (5S)-2-Amino-5-[4-(difluoromethoxy)phenyl]-5-[4-fluoro-3-(6-fluoropyridin-3-yl)phenyl]-3-methyl-3,5-dihydro-4H-imidazol-4-one], at human BACE2, the BACE1/BACE2 selectivity result was “III (III = <10-fold selectivity)”. The IC50 on human BACE1 fell in the range of 0.11 to 1 µM.
Taken in the same sequence, the figures for `CN1C(=O)[C@@](c2ccc(OC(F)F)cc2)(c2ccc(F)c(-c3ccc(F)nc3)c2)N=C1N` [Example 134B, (5R)-2-Amino-5-[4-(difluoromethoxy)phenyl]-5-[4-fluoro-3-(6-fluoropyridin-3-yl)phenyl]-3-methyl-3,5-dihydro-4H-imidazol-4-one] were “II (II = 10-100-fold selectivity)” and 0.01 to 0.1 µM.
For the compound `CN1C(=O)[C@](c2ccc(OC(F)F)cc2)(c2cccc(-c3ccc(F)nc3)c2)N=C1N` [Example 135A, (5S)-2-Amino-5-[4-(difluoromethoxy)phenyl]-5-[3-(6-fluoropyridin-3-yl)phenyl]-3-methyl-3,5-dihydro-4H-imidazol-4-one], the BACE1/BACE2 selectivity result at human BACE2 is on record as “III (III = <10-fold selectivity)”. The half-maximal inhibitory concentration (IC50) on human BACE1 was over 1 µM.
For the compound `CN1C(=O)[C@@](c2ccc(OC(F)F)cc2)(c2cccc(-c3ccc(F)nc3)c2)N=C1N` [Example 135B, (5R)-2-Amino-5-[4-(difluoromethoxy)phenyl]-5-[3-(6-fluoropyridin-3-yl)phenyl]-3-methyl-3,5-dihydro-4H-imidazol-4-one], the BACE1/BACE2 selectivity entry at human BACE2 is “II (II = 10-100-fold selectivity)”. Also, the concentration for half-maximal inhibition (IC50) on human BACE1 lay in the range of 0.01 to 0.1 µM.
As to `CCOc1ccc([C@]2(c3ccc(F)c(-c4cccnc4F)c3)N=C(N)N(C)C2=O)cc1OCC` [Example 136A, (5S)-2-Amino-5-(3,4-diethoxyphenyl)-5-[4-fluoro-3-(2-fluoropyridin-3-yl)phenyl]-3-methyl-3,5-dihydro-4H-imidazol-4-one], at human BACE2, the BACE1/BACE2 selectivity entry is “II (II = 10-100-fold selectivity)”. The IC50 on human BACE1 fell in the range of 0.01 to 0.1 µM.
As to `CN1C(=O)[C@](c2ccc(OC(F)F)cc2)(c2cccc(-c3cc(F)cnc3F)c2)N=C1N` [Example 137A, (5S)-2-Amino-5-[4-(difluoromethoxy)phenyl]-5-[3-(2,5-difluoropyridin-3-yl)phenyl]-3-methyl-3,5-dihydro-4H-imidazol-4-one], on human BACE2, the BACE1/BACE2 selectivity result is “III (III = <10-fold selectivity)”. Moreover, on human BACE1, the IC50 is over 1 µM.
As for `CN1C(=O)[C@@](c2ccc(OC(F)F)cc2)(c2cccc(-c3cc(F)cnc3F)c2)N=C1N` [Example 137B, (5R)-2-Amino-5-[4-(difluoromethoxy)phenyl]-5-[3-(2,5-difluoropyridin-3-yl)phenyl]-3-methyl-3,5-dihydro-4H-imidazol-4-one], the BACE1/BACE2 selectivity result on human BACE2 is listed as “II (II = 10-100-fold selectivity)”. Further, at human BACE1, the IC50 fell in the range of 0.01 to 0.1 µM.
For `CN1C(=O)[C@](c2ccc(OCCF)cc2)(c2ccc(F)c(-c3cncnc3)c2)N=C1N` [Example 139A, (5S)-2-Amino-5-[4-(2-fluoroethoxy)phenyl]-5-(4-fluoro-3-pyrimidin-5-ylphenyl)-3-methyl-3,5-dihydro-4H-imidazol-4-one], the BACE1/BACE2 selectivity result on human BACE2 is listed as “I (I = >100-fold selectivity)”. On human BACE1, the half-maximal inhibitory concentration (IC50) is 0.01 to 0.1 µM.
In the same order, the values of `CN1C(=O)[C@@](c2ccc(OCCF)cc2)(c2ccc(F)c(-c3cncnc3)c2)N=C1N` [Example 139B, (5R)-2-Amino-5-[4-(2-fluoroethoxy)phenyl]-5-(4-fluoro-3-pyrimidin-5-ylphenyl)-3-methyl-3,5-dihydro-4H-imidazol-4-one] are “III (III = <10-fold selectivity)” and 0.11 to 1 µM.
`COc1ccc([C@@]2(c3ccc(F)c(-c4cncc(F)c4)c3)N=C(N)N(C)C2=O)cc1` [Example 142A, (5S)-2-Amino-5-[4-fluoro-3-(5-fluoropyridin-3-yl)phenyl]-5-(4-methoxyphenyl)-3-methyl-3,5-dihydro-4H-imidazol-4-one]: the BACE1/BACE2 selectivity result on human BACE2 is on record as “III (III = <10-fold selectivity)”. Moreover, on human BACE1, the 50% inhibitory concentration (IC50) is over 1 µM.
As to `COc1ccc([C@]2(c3ccc(F)c(-c4cncc(F)c4)c3)N=C(N)N(C)C2=O)cc1` [Example 142B, (5R)-2-Amino-5-[4-fluoro-3-(5-fluoropyridin-3-yl)phenyl]-5-(4-methoxyphenyl)-3-methyl-3,5-dihydro-4H-imidazol-4-one], the BACE1/BACE2 selectivity result at human BACE2 is on record as “II (II = 10-100-fold selectivity)”. For the same compound, the IC50 at human BACE1 was 0.01 to 0.1 µM.
